Legend:
[1] = tested on: Gastric Secretion of the Rat; experiment: Effects on gastric secretion of the rat (pylorus ligated); type: in vivo; conditions: for Gastric Secretion (value judgement, % decrease in acidity): subcutaneous, 2 x 1.5 mg/kg (total 3.0 mg/kg), 4 hours after pyloric ligation
Description: Evaluation of the Effects of Prostaglandin Analogues on Gastric Secretion of the Rat
A procedure based on that described by Lipmann (1969) is used to assess the influence of test compound on gastric secretion. Rats of one sex weighing 150 to 200 gm are randomly divided into groups of six animals each and fasted for 48 hours previous to the experiments, water being available ad libitum. The animals are anesthetized with ether, the abdomen opened through a midline incision, and the pylorus ligated. Test compounds are diluted from stock solution so as to administer a dose of 1.5 mg/kg in a volume equivalent to 1 ml/kg. Subcutaneous injections are applied immediately after surgery and again 2 hours later, so that a total dose of 3.0 mg/kg is administered. Dilutions are made with phosphate buffer (pH 7.38) as recommended by Lee et al (1973), in order to insure adequate stability of drugs at the subcutaneous depot. Each compound is tested in one group of rats; an additional control group received only one vehicle.
Four hours after pyloric ligation the animals are killed with ether, the cardias ligated and the stomachs removed. The volume of gastric secretion is measured and the contents centrifuged at 5000 rpm for 10 minutes. Total acid in the supernatant is titrated against a 0.1 N sodium hydroxide solution and the amount expressed in mEq.
Volume and total acid values of the treated group are compared with those of the controls by the test. Antisecretory activity is scored according to the following scale: […]

Hypertensive Rat = experiment: Effects on blood pressure in the hypertensive rat (Grollman); type: in vivo; set-up: key: 0: Not significant at any time interval; 1: Significant at one time interval; 2: Significant at two time intervals; 3: Significant at three time intervals; 4: Significant at all four time intervals; conditions: intraperitoneal, 1 mc/kg; 2, 4, 6 and 8 hours
Description: Evaluation of the Effects of Prostaglandin Analogues on Blood Pressure in the Hypertensive Rat
The acute antihypertensive activity of test compounds is determined in rats made hypertensive by the procedure of Grollman (1944). Female rats weighing between 60 and 100 g are anesthetized with ether, the right kidney approached through a flank retroperitoneal incision, decapsulated and tied with a figure-of-eight ligature. The animals are left to recover and two weeks later are again anesthetized and the contralateral kidney removed. Four weeks after the second operation the rats are subjected to indirect blood pressure measurements and those showing systolic pressure values greater than 160 mmHg are selected for drug testing.
Blood pressure is measured in the tail with an inflatable occluding cuff placed at the base of the extremity and a pulse detector located distally. The cuff is inflated to approximately 300 mmHg and is slowly deflated until pulsations appear, indicating the level of systolic pressure; diastolic pressure is not recorded by this procedure. All measurements are carried out in unanesthetized, unsedated animals maintained in a warm environment during the recording procedure and for at least 6 hours before. In all cases, three pressure readings are obtained in succession and mean values are calculated thereof.
Experiments are carried out in groups of five hypertensive rats in which systolic pressure is determined immediately before and 2, 4, 6 and 8 hours after the intraperitoneal administration of the test compound at a dose of 1 mc/kg. Drugs are diluted from stock solutions with phosphate buffer (Lee et al, 1973), so as to inject this quantity in a volume of 1 ml/kg. Changes from control blood pressure values are calculated for each interval both in mmHg and in percent and evaluated for significance by means of Wilcoxon's signed rank test (Wilcoxon and Wilcox, 1964).

gastric secretion = conditions: dogs; cited from earlier work
[2] = tested on: smooth muscle of the vas deferens; conditions: mammalian male reproductive system; cited from earlier work
growth hormone release = conditions: rats; cited from earlier work
[3] = tested on: ovarian progesterone secretion; conditions: sheep; cited from earlier work
blood platelets = conditions: in vitro; cited from earlier work
adrenal glands = conditions: hypophysectomized rats; cited from earlier work
thyroid activity = conditions: mice; cited from earlier work

Compound | Gastric Secretion (value judgement, % decrease in acidity) [1] | Blood Pressure Hypertensive Rat (value judgement, blood pressure decrease) (Hypertensive Rat) | other results
16,20-methano-oxa-1,11β,15R-trihydroxy- 8,12-bisisoprost-13E-en-9-one [TR-4853] | 0 (<26) |  | 
CCCCC(C)(C)[C@H](O)/C=C/[C@H]1[C@H](O)CC(=O)[C@@H]1CCCCOCCO (relative stereo) [TR-4616, ±16,16-dimethyl-3-oxa-1,11α,15R and S-trihydroxyprost-13E-en-9-one] | 2 (26-50, significant) | 0 | inhibition of gastric acid secretion (in words) ([1]; rat, in vivo): inhibit gastric acid secretion
CCCCC(C)(C)[C@@H](O)/C=C/[C@H]1[C@H](O)CC(=O)[C@@H]1CCCCOCCO (relative stereo) [TR-4617, ±16,16-dimethyl-3-oxa-1,11α,15R and S-trihydroxyprost-13E-en-9-one] | 0 (<26) | 1 | 
CCCCC[C@H](O)/C=C/[C@H]1[C@H](O)CC(=O)[C@@H]1CCCCCCC(=O)O [PGE1, prostaglandin E1] |  |  | gastric secretion (gastric secretion): inhibits gastric secretion; contraction of smooth muscle of the vas deferens [2]: contracts the smooth muscle of the vas deferens; release of growth hormone (growth hormone release): increases the release of growth hormone; ovarian progesterone secretion [3]: inhibit ovarian progesterone secretion; aggregation of blood platelets (blood platelets): inhibits aggregation of blood platelets in vitro; stereodogenesis in the adrenal glands (adrenal glands): stimulate stereodogenesis in the adrenal glands; thyroid activity (thyroid activity): increase thyroid activity
CCCCC[C@H](O)/C=C/[C@H]1[C@H](CCCCOCCO)C(=O)C[C@@H]1O [TR-4649, 3-oxa-1,11β,15S-trihydroxy-8,12-bisisoprost-13E-en-9-one] | 0 (<26) |  | 
CCCCC[C@H](O)/C=C/[C@H]1[C@H](O)CC(=O)[C@@H]1CCCCOCCO [TR-4650, 3-oxa-1,11α,15S-trihydroxyprost-13E-en-9-one] | 0 (<26) | 1 | 
O=C1CC(O)C(/C=C/[C@H](O)C2CCCCC2)C1CCCCOCCO (stereo partly drawn) [TR-4856, 16,20-methano-3-oxa-1,11α,15R-trihydroxyprost-13E-en-9-one] | 0 (<26) | 2 | 

Reference: patent US4158018A, “3-Oxa carbinol prostaglandin analogs” (Miles Laboratories, Inc., priority 1978, dated 1979)
